The results in this text go back to US20140314904A1, “PRE-SLAUGHTER DIET INCLUDING METHIONINE” (ADISSEO FRANCE S.A.S., priority 2011, published 2014).

For test [1], the system named is slaughter pigs. The test can be described thus: Free protein thiol (protein oxidation, Ellman's reagent). The test is classed as in vivo, pig. The conditions noted are these: for Level of free thiol (protein oxidation): 7 days at 2° C., LS mean ± SEM; for Decline of level of free thiol from storage without oxygen to high-oxygen MAP: vacuum versus MAP. On the procedure: In Example 1 twenty-one pigs were randomly assigned to one of three feeding groups (n=7). The control group received a standardized diet only. The DLM and HMTBA groups received the standardized diet plus a high-methionine supplement (either DLM (i.e. […] At 48 h post mortem, 3 cm thick pork chops were either vacuum packed or sealed in a modified atmosphere (MA; 80% O2) and stored for an additional 7 days at 2° C. Instrumental hardness was measured using the Warner-Bratzler shear force (WBSF; Newton) method. Protein oxidation was measured as the loss of free thiol groups in proteins (nmol thiol per mg protein) using Ellman's reagent. Lipid oxidation was measured as the increase in 2-thiobarbituric acid reactive substances (TBARS; mg malondialdehyde per kg meat). Twenty-one slaughter pigs ([Yorkshire×Swedish Landrace]×Hampshire) were raised on a commercial diet. Pigs were randomly assigned to one of three groups (n=7). […] Pork chops were cut perpendicular to the long axis of each LD muscle. Six 3 cm thick pork chops was sliced from each LD. Three were vacuum packed and three were packed in a high-oxygen modified atmosphere. The chops were placed in plastic trays ([…]-43A white/PS; 195×144×43 mm in dimension; Frch Plast, Denmark) and placed in vacuum bags (EM-628862; […] The ambient air was removed from all vacuum bags using a vacuum machine (type, manufacturer, country). […] (until 9 days post mortem). The gas composition was checked (CheckMate 9900, PBI Dansensor, Denmark) before packaging and again prior to opening, at the end of the simulated display period in order to check for leakage. The oxygen-enriched environment was well maintained (83.4%) throughout the display period for all MA packages. […] In brief, the frozen pork samples were partially thawed at chill storage temperature for 30 minutes. Fat and connective tissue was removed and 1.0 g of lean meat was homogenised in 25 ml of 5.0% SDS (sodium dodecyl sulphate) in 0.10 M Tris ([…]) buffer, pH 8.0 using an Ultra Turrax (Ultra Turrax T-25, Janke & Kunkel IKA-Labortechnik, Germany). The homogenates were placed in a water bath at 80° C. for 30 minutes, and subsequently cooled and filtered. The protein concentration was determined spectrophotometrically (Helios Omega Single Beam UV-VIS, Fisher Scientific Biotech Line, Denmark) at a wavelength of 280 nm using a standard curve prepared from bovine serum albumin (BSA). […] Filtrate (25 μl), Tris buffer (100 μl) and DTNB (25 μl) were added to wells in a 96 well microtiter plate. The absorbance at 410 nm was measured before addition of DTNB (ABS410meat) and after reaction with DTNB (ABS410meat+DTNB). In addition, the absorbance of a blank solution (25 μl 5% SDS dissolved in 100 mM Tris buffer and 100 μl 0.10 M Tris buffer) was likewise measured at 410 nm. After addition of DTNB, the microtiter plate was stored in the dark and the absorbance was measured exactly 30 minutes later. The absorbance corresponding to the thiol concentration in the sample was CorrABS410=ABS410meat+DTNB-ABS410meat-ABS410blank. […] The concentration of free thiol groups was determined as nmol thiol per mg protein. Duplicate homogenates, and triplicate measurements on each homogenate, were made for each meat sample and the mean values were used for further statistical analysis.

For test [2], the system named is slaughter pigs. Briefly: Cooking loss of pork chops. It is filed as in vivo, pig. Conditions: 7 days at 2° C., LS mean ± SEM. From the text:
Twenty-one slaughter pigs ([Yorkshire×Swedish Landrace]×Hampshire) were raised on a commercial diet. Pigs were randomly assigned to one of three groups (n=7). The groups represented three feeding strategies, namely a Control group which received a standardized diet comprising 0.27% total methionine, and both a DLM and HMTBA group, receiving the same diet as the Control group throughout the feeding period, apart from the fact that they were fed a higher level of methionine (1.1% total methionine) during a seven day finishing period immediately prior to slaughter. The supplements were given in two forms, either as D L-methionine (DLM) or DL-2-hydroxy-4-methylthiobutanoic acid (HMTBA).
Pigs were slaughtered at a commercial slaughter house in Sweden after a resting time of 5 hours. At 45 minutes post mortem, pH (Knick portamess 751 pH-meter with an Ingold LOT glass electrode, Tech Instrumentering ApS, Denmark) and temperature (digital thermometer, Weber, Stephen Nordic, Denmark) were measured in the m. Longissimus dorsi (LD) at the level of the 10th rib. At 48 hours post mortem, the entire back was dissected from the carcass and transported under controlled conditions to the University of Copenhagen for further measurements.
Pork chops were cut perpendicular to the long axis of each LD muscle. Six 3 cm thick pork chops was sliced from each LD. Three were vacuum packed and three were packed in a high-oxygen modified atmosphere. The chops were placed in plastic trays (M71-43A white/PS; 195×144×43 mm in dimension; Frch Plast, Denmark) and placed in vacuum bags (EM-628862; O2 transmission rate=40-50 cm^3/m^2/24 h/bar, CO2 transmission rate=150 cm^3/m^2/24 h/bar, water-vapour transmission rate=2.6 g/m^2/24 h; LogiCon Nordic A/S, Denmark). The ambient air was removed from all vacuum bags using a vacuum machine (type, manufacturer, country). The bags intended for […] were first filled with a gas mixture (80% oxygen/20% carbon dioxide) before being sealed completely, whereas the bags intended for MAP were only partially sealed. […] (until 9 days post mortem). The gas composition was checked (CheckMate 9900, PBI Dansensor, Denmark) before packaging and again prior to opening, at the end of the simulated display period in order to check for leakage. The oxygen-enriched environment was well maintained (83.4%) throughout the display period for all MA packages.
Storage loss was determined as the weight loss percentage at the end of the display period (9 days post mortem) relative to the weight at the day of packaging (two days post mortem). The cooking loss was determined as the weight loss percentage between the pork chops before and after cooking. The results are given as the mean of the three pork chops in each meat pack.

As for `CSCCC(N)C(=O)O` (racemic) [DLM, DL-methionine], the “Level of free thiol (protein oxidation)” value in test [1] (MAP (80% O2 + 20% CO2)) was 56.27 ± 1.13 ^B nmol thiol/mg protein; in test [1] (Vacuum) it was 62.16 ± 1.19 ^A nmol thiol/mg protein. Also, the “Decline of level of free thiol from storage without oxygen to high-oxygen MAP” value in test [1] was found to be 6.0 units. Also, the Cooking loss is 15.82 ± 1.86 ^A g in test [2] (MAP (80% O2 + 20% CO2)) and 21.52 ± 1.86 ^A g in test [2] (Vacuum).

As to `CSCCC(O)C(=O)O` (racemic) [HMTBA, 2-hydroxy-4-(methylthio) butanoic acid], the “Level of free thiol (protein oxidation)” value is on record as 59.15 ± 1.13 ^A, B nmol thiol/mg protein in test [1] (MAP (80% O2 + 20% CO2)) and 62.60 ± 1.13 ^A nmol thiol/mg protein in test [1] (Vacuum). Also, the “Decline of level of free thiol from storage without oxygen to high-oxygen MAP” value in test [1] was 3.5 units. Besides, the Cooking loss in test [2] (MAP (80% O2 + 20% CO2)) is listed as 18.49 ± 1.73 ^A g; in test [2] (Vacuum) it was 21.35 ± 1.73 ^A g.
